Assay results published in patent US20230257715A1, “COMPOSITIONS AND METHODS FOR REGULATING ENTEROENDOCRINE CELL DIFFERENTIATION AND USES THEREOF” (The Children's Medical Center Corporation, priority 2020, published 2023).

Tested on: human duodenal enteroids
Assay: Flow cytometry of CHGA+ cells from enteroids
Type: cell-based
Experimental: Organoids were incubated in Cell Recovery solution for 40-60 minutes at 4° C. to remove the Matrigel® and then centrifuged at 500×g for 5 minutes at 4° C. To achieve single cell suspension, organoids were then incubated in 500 μL of TrypLE™ Express (Thermo Fisher Scientific) at 37° C. for 30 minutes and broken up by repeated pipetting using a bent P1000 pipette tip. Each sample was then diluted in 800 μL of 20% FBS in Advanced DMEM/F12 and then centrifuged at 800×g for 5 minutes at 4° C. To mark dead cells, each sample was then incubated in DAPI (1:1000) diluted in 2% FBS/2 mM EDTA/calcium-free DMEM for 20 minutes at room temperature, then centrifuged at 800×g for 5 minutes at 4° C. and washed in 2% FBS/2 mM EDTA/DMEM. Cells were then incubated in 1% PFA for 15 minutes at room temperature, washed with 2% FBS/PBS and then permeabilized in 0.2% Tween 20 in 2% FBS/PBS for 15 minutes at 37° C. Following centrifugation, cells were resuspended in 0.1% Tween 20/2% FBS/2 mM EDTA in PBS with PE/Alexa Fluor 647-conjugated CHGA (BD Biosciences, 564563, 1:100) or PE/Alexa Fluor 647-conjugated mouse IgG1, K isotype, (BD Biosciences, 554680, 1:200) or with no antibody (the latter two acting as controls) for 30 minutes on ice. Cells were then washed in 0.1% Tween 20/2% FBS/2 mM EDTA in PBS, filtered through a 37-micron mesh, and then analyzed on a BD FACSAria II SORP flow cytometer. […]

CCn1cc(C(=O)O)c(=O)c2c(N)c(F)c(NC3CCCCC3)cc21 [AS, AS1842856]
number of CHGA+ cells relative to the number seen with G2D12 alone: ~50 times
